Data set [1] in a line: Isothermal Titration Calorimetry (ITC) of peptoid-heparin binding. Conditions: for TΔS: calculated from binding constant and ΔH; for ΔS: calculated from ΔG and ΔH; for ΔG: calculated from ΔG=−RTlnKb. The protocol:
For Table 3, binding constants and other thermodynamic parameters were determined for the chiral 12-mer analogs by ITC. The S12mer data represents 3 trials, and the R12mer represents 2 trials. Values for the parameters Kb, AH and N are obtained by fitting the titration curves. AG is calculated from ΔG=−RTlnKb and ΔS is calculated from […].
Isothermal Titration Calorimetry (“ITC”) was used to determine directly ΔH, the binding constant and stoichiometry, and ΔS was then calculated from the binding constant and ΔH for the binding reaction between heparin and the peptoids produced in this study. In a typical ITC experiment, peptoid in buffer solution was placed in the sample cell and an equivalent quantity of the same buffer solution was placed in the reference cell. Heparin in buffer solution was placed in the titration syringe. Heparin titrant was added to the sample cell in 10 μL aliquots with 210 sec. between aliquots.
FIG. 11 presents the isotherm for the endothermic reaction. The resulting integrated titration curve is given in FIG. 12 for a reaction between 0.20 mM peptoid in the sample cell and 0.25 mM heparin in the titration syringe.

Data set [2] can be described thus: Heparin Affinity Chromatography (HAC). It is filed as binding. The note with it: Table 4; heparin affinity column, gradient 0 to 1 M NaCl in pH 7.2, 50 mM sodium phosphate over 60 min, 0.65 mL/min. The protocol: The relative affinities of the peptoids in Table 2 for heparin were determined by heparin affinity chromatography (“HAC”). Peptoid solutions, typically 0.2 mM, were eluted by gradient elution; mobile phase A consisted of pH 7.2, 50 mM sodium phosphate buffer and mobile phase B consisted of the same buffer but with 1 M NaCl added. The flow rate was 0.65 mL/min and the gradient began with 100% mobile phase A and 0% mobile phase B, and ended at 60 min with 0% mobile phase A and 100% B although most of the peptoid runs were complete within 30 min or less.

The conditions of data set [3]: Coatest heparin in vitro assay; cited from earlier work.
The next data set has as its system proteases. Conditions: physiological conditions; cited from earlier work.
Where [4] appears, read: Table 4, ITC, heparin titrated into peptoid in buffer.
Where [5] appears, read: Table 3, ITC, S12mer 3 trials, R12mer 2 trials.

The text below walks through data of patent US20140256638A1, “PEPTOID NEUTRALIZING AGENTS” (The Regents of the University of California, priority 2013, published 2014).

As for H-[N(Lys)-N(Bu)-N(Spe)]3-NH2 [s9merLys], in data set [1] (Table 4, ITC), the ΔH came out at 3.305 ± 0.064 kcal/mol and the TΔS is on record as 10,000 ± 54 cal/mole. The Kd (in general, the constant that tells how readily two partners part at equilibrium) in data set [1] (setting [4]) was determined as 16.4 ± 11 µM. Moreover, the HAC r.t. in data set [2] came to 14.6 ± 0.2 min.
Consider H-[N(Orn)-N(Bu)-N(Spe)]2-NH2 [s6mer], for which, in data set [1] (Table 4, ITC), the ΔH was 0.565 ± 0.064 kcal/mol and the TΔS was 7748 ± 880 cal/mol. In data set [1] (setting [4]), this substance came in with a Kd of 44 ± 5 µM. The substance also registered an HAC r.t. in data set [2] of 9.61 ± 1.1 min.
As to H-[N(Arg)-N(Bu)-N(Spe)]-NH2 [s3merG], in data set [1] (Table 4, ITC), the ΔH was -0.6325 ± 0.0085 kcal/mol and the TΔS is 2026.4 ± 159 cal/mol. This substance yielded a dissociation constant Kd in data set [1] (setting [4]) of 140 ± 11 µM. The same substance had an HAC r.t. in data set [2] of 3.8 ± 0.3 min.
With “H-[N(Orn)-N(Orn)-N(Spe)]4-NH2 [s9merOrnOrn]”, in data set [1] (ITC with heparin), the “enthalpy of reaction (sign)” value is recorded as “exothermic”. In data set [1] (Table 4, ITC), the ΔH was -5.253 ± 0.105 kcal/mol and the TΔS was 3992 ± 383 cal/mol. Also, in data set [1] (setting [4]), the Kd came to 0.14 ± 0.004 µM. Further, the HAC r.t. in data set [2] is given as 38.5 ± 5.0 min.
In the case of H-[N(Orn)-N(Bz)-N(Spe)]3-NH2 [s9merBz], in data set [1] (Table 4, ITC), the ΔH is -0.545 ± 0.121 kcal/mol and the TΔS was 2851 ± 1.4 cal/mol. Moreover, the Kd in data set [1] (setting [4]) is 0.9 ± 0.4 µM. This substance returned an HAC r.t. in data set [2] of 29.3 ± 0.5 min.
With H-[N(Arg)-N(Et)-N(Spe)]3-NH2 [s9merEtG], in data set [1] (Table 4, ITC), the ΔH is -2.176 ± 0.082 kcal/mol and the TΔS was 3159 ± 115 cal/mol. In addition, in data set [1] (setting [4]), the Kd is 4.3 ± 2.2 µM. For the same substance, the HAC r.t. in data set [2] was found to be 21.5 ± 0.5 min.
On to H-[N(Orn)-N(Bu)-N(Rpe)]4-NH2 [r12mer], for which, in data set [1] (setting [5]), the Kd is 7.57 µM and the ΔH stood at 1.278 kcal/mol. Moreover, in data set [1] (Table 3, ITC), the ΔS is recorded as 19.01 cal/mole ° C and the ΔG was -6.956 kcal/mol. Besides, in data set [1] (Table 4, ITC), the ΔH turned out to be 1.278 ± 0.379 kcal/mol and the TΔS is 5664 ± 2.5 cal/mol. Also, the Kd in data set [1] (setting [4]) was 7.6 ± 4.2 µM. For the same substance, in data set [2], the HAC r.t. stood at 18.5 ± 0.6 min.
H-[N(Orn)-N(Bu)-N(Spe)]4-NH2 [s12merG]: in data set [1] (Table 4, ITC), the ΔH is -0.167 ± 0.038 kcal/mol and the TΔS is 7682 ± 43 cal/mol. For the same substance, in data set [1] (setting [4]), the dissociation constant (Kd) is 3.4 ± 0.4 µM. The substance further gave an HAC r.t. in data set [2] of 29.2 ± 1.0 min.
As for “H-[N(Orn)-N(All)-N(Spe)]3-NH2 [s9merAll]”, in data set [1] (Table 4, ITC), the ΔH was -0.931 ± 0.074 kcal/mol and the TΔS was 4627 ± 41 cal/mol. Besides, binding in data set [1] (setting [4]) was characterised by a dissociation constant (Kd) of 8.3 ± 3.2 µM. The substance also displayed an HAC r.t. in data set [2] of 20 ± 2.0 min.
For “Ac-SRGKAKVKAKVKDQTK-NH2 (not fully specified; printed as Ac-SRGKAKVKAKVKDQTK-NH2) [L-HIPAP]”, the neutralizing heparin activity result in data set [3] is given as “equally effective”.
Ac-SRGKAKVKAKVKDQTK-NH2 [D-HIPAP]: the stability to proteases entry in the data set with proteases is “more stable than L-HIPAP”.
For H-[N(Arg)-N(Bu)-N(Spe)]2-NH2 [s6merG], in data set [1] (Table 4, ITC), the ΔH is -2.862 ± 0.222 kcal/mol and the TΔS was 2316 ± 32 cal/mol. The same substance displayed a Kd in data set [1] (setting [4]) of 20.6 ± 0.8 µM. In data set [2], this substance showed an HAC r.t. of 13.5 ± 2.9 min.
As for H-[N(Orn)-N(Pr)-N(Spe)]3-NH2 [s9merPr], in data set [1] (Table 4, ITC), the ΔH came to 3.555 ± 0.056 kcal/mol and the TΔS was 1427 ± 2.6 cal/mol. The Kd in data set [1] (setting [4]) is 11.2 ± 0.7 µM. The substance also showed an HAC r.t. in data set [2] of 16.5 ± 0.7 min.
The matching figures for H-[N(Orn)-N(Et)-N(Spe)]3-NH2 [s9merEt]: 0.8223 ± 0.034 kcal/mol, 5140 ± 37 cal/mol, 10.9 ± 0.7 µM and 16.5 ± 0.5 min.
On to H-[N(Cad)-N(Bu)-N(Spe)]3-NH2 [s9merCad], for which, in data set [1] (Table 4, ITC), the ΔH is 2.381 ± 0.029 kcal/mol and the TΔS was 8989 ± 15 cal/mol. The same substance showed a Kd in data set [1] (setting [4]) of 11.7 ± 0.1 µM. Also, the HAC r.t. in data set [2] is 16.3 ± 0.6 min.
With H-[N(Arg)-N(Bu)-N(Spe)]3-NH2 [s9merG], in data set [1] (Table 4, ITC), the ΔH was -1.197 ± 0.071 kcal/mol and the TΔS was 16.6 ± 1.7 cal/mol. Moreover, binding in data set [1] (setting [4]) was characterised by a dissociation constant (Kd) of 4.76 ± 2.3 µM. In data set [2], this substance yielded an HAC r.t. of 20.8 ± 0.8 min.
Take H-[N(Orn)-N(Me)-N(Spe)]3-NH2 [s9merMe]: in data set [1] (Table 4, ITC), the ΔH was 1.654 ± 0.011 kcal/mol and the TΔS was 3161 ± 76 cal/mol. The substance also showed a Kd in data set [1] (setting [4]) of 8.3 ± 2 µM. The HAC r.t. in data set [2] came to 18.1 ± 0.5 min.
Regarding H-[N(Orn)-N(Bu)-N(Spe)]4-NH2 [s12mer], the “relative binding affinity to heparin” value in data set [1] (ITC and HAC results, comparison in words) is given as “greater binding affinity”. In data set [1] (setting [5]), the Kd was 4.11 µM and the ΔH is 1.733 kcal/mol. In data set [1] (Table 3, ITC), the ΔS was 30.53 cal/mole ° C and the ΔG is -6.309 kcal/mol. Moreover, in data set [1] (Table 4, ITC), the ΔH was 1.733 ± 0.047 kcal/mol and the TΔS was 9097 ± 30 cal/mol. The substance also showed a Kd in data set [1] (setting [4]) of 4.11 ± 0.6 µM. This substance yielded an HAC r.t. in data set [2] of 21.6 ± 0.6 min.
Ac-SRGKAKVKAKVKDQTK-NH2 [L-HIPAP]: in the data set on proteases, the stability to proteases entry is on record as “more susceptible to degradation by proteases”.
As for H-[N(Orn)-N(Bu)-N(Spe)]3-NH2 [s9mer], in data set [1] (Table 4, ITC), the ΔH came to 0.814 ± 0.089 kcal/mol and the TΔS was 7259 ± 45 cal/mol. Also, binding in data set [1] (setting [4]) was characterised by a dissociation constant (Kd) of 18.6 ± 3.2 µM. In addition, the HAC r.t. in data set [2] was 14.1 ± 1.2 min.
In the case of “H-[N(Lys)G-N(Bu)-N(Spe)]3-N2 [s9merLysG]”, in data set [1] (Table 4, ITC), the ΔH was -0.6151 ± 0.135 kcal/mol and the TΔS was 3948 ± 56 cal/mol. Further, the affinity in data set [1] (setting [4]), expressed as Kd, was 5 ± 0.3 µM. In data set [2], this substance yielded an HAC r.t. of 20.6 ± 0.2 min.
Consider H-[N(Orn)-N(Bu)-N(Spe)]-NH2 [s3mer], for which, in data set [1] (Table 4, ITC), the ΔH came to 0.3867 ± 0.237 kcal/mol and the TΔS is 5057 ± 35 cal/mol. The substance further had a Kd in data set [1] (setting [4]) of 164 ± 32 µM. In data set [2], the HAC r.t. was determined as 3.0 ± 0.6 min.
Take “H-[N(Cad)G-N(Bu)-N(Spe)]3-NH2 [s9merCadG]”: in data set [1] (Table 4, ITC), the ΔH is -0.2835 ± 0.027 kcal/mol and the TΔS was 7500 ± 32 cal/mol. Further, the Kd in data set [1] (setting [4]) is 5.5 ± 3.4 µM. The HAC r.t. in data set [2] amounted to 20.1 ± 0.5 min.
For H-[N(Arg)-N(Pr)-N(Spe)]3-NH2 [s9merPrG], in data set [1] (Table 4, ITC), the ΔH is -1.634 ± 0.043 kcal/mol and the TΔS was 4639 ± 36 cal/mol. Binding in data set [1] (setting [4]) was put at a Kd of 5.6 ± 1.8 µM. Moreover, the HAC r.t. in data set [2] came out at 20.3 ± 0.6 min.
